The test system of data set [1] is dengue virus type 2. As to the kind of experiment: Antiviral activity against DENV2 infected in human A549 or golden hamster BHK21 cells preincubated with viral inoculum for 30 mins followed by viral inoculum removal after 1 hr and subsequently incubated with fresh medium containing compound and measured 8 hrs post-infection by luciferase reporter gene assay. In kind it is functional, cell-based.

For data set [2], the system named is Bovine viral diarrhea virus 1. As to the kind of experiment: Antiviral activity against BVDV. In kind it is functional. Particulars: Bovine viral diarrhea virus isolates and strains.
Data set [3] is described as follows: Cytotoxicity against human A549 cells by MTT assay. In kind it is cell-based. In general terms: Tetrazolium assays rely on reduction of a dye to a coloured formazan, in cell work by metabolically active cells.
Data set [4] is described as follows: Cytotoxicity against golden hamster BHK21 cells by MTT assay. Type of data set: cell-based, Mesocricetus auratus, BHK-21.
The nature of data set [5]: Selectivity index, ratio of CC50 for human A549 cells to EC50 for DENV2.
A short description of data set [6]: Selectivity index, ratio of CC50 for golden hamster BHK21 cells to EC50 for DENV2.
Data set [7] is described as follows: Aqueous solubility of the compound in buffer at pH 2.0 after 48 hrs UV spectroscopy based shake flask method. Type of data set: physicochemical.
The nature of data set [8]: Aqueous solubility of the compound in buffer at pH 6.4 after 48 hrs UV spectroscopy based shake flask method. Type of data set: physicochemical.
The nature of data set [9]: Aqueous solubility of the compound in buffer at pH 7.4 after 48 hrs UV spectroscopy based shake flask method. In kind it is physicochemical.
The nature of data set [10]: Stability of the compound in pH 7.4 PBS buffer after 24 to 48 hrs by chromatographic method. In kind it is physicochemical.

Values after ≈ are worked out from the molar mass of the structure shown.

The values that follow come from ChEMBL document CHEMBL4052729, “Discovery of novel dengue virus entry inhibitors via a structure-based approach” (Bioorg Med Chem Lett, 2017).

The EC50 is the concentration needed to bring the measured effect to its halfway point. The low end stands for a more potent agent, the high end for a less potent agent. A word on the CC50: it is the concentration at which the toxic effect on the cells reaches its halfway point. Read a high CC50 as better tolerance by the cells. Consider `O=C(Nc1ccccc1OCc1ccc(Cl)c(Cl)c1)c1ccco1`, for which the values for the EC50 in data set [1] and in data set [2] were 22.7 µM and greater than 50 µM, respectively. Also, the CC50 in data set [3] and in [4] was greater than 100 µM in each case. Besides, the “Ratio CC50/EC50” value in [5] and in [6] was greater than 5 each time.

Take `O=C(NC(=S)N1CCc2ccccc21)c1ccc(C#Cc2ccccc2)nc1`: the concentration giving a half-maximal response (EC50) was 28.7 µM in data set [1] and greater than 50 µM in data set [2]. In addition, the CC50 in data set [3] and in data set [4] was greater than 100 µM each time. Besides, the “Ratio CC50/EC50” value in data set [5] and in data set [6] was greater than 4 throughout.

By solubility (thermodynamic) is commonly meant the concentration in solution at equilibrium with solid. For the molecule `O=C(CSCC(=O)Nc1ccc(OC(F)(F)F)cc1)NNC(=S)Nc1ccccc1`, the solubility (thermodynamic) at 48 h in data set [7] was 8.2 µg/mL (≈ 17.9 µM); in [8] it was 13.1 µg/mL (≈ 28.6 µM); in [9], 1.2 µg/mL (≈ 2.62 µM). The Stability in data set [10] is greater than 48 h. The EC50 in [1] was 5.1 µM; in data set [2] it was greater than 50 µM. In addition, the CC50 in [3] and in [4] was greater than 100 µM in each case. Besides, the “Ratio CC50/EC50” value in [5] and in data set [6] was greater than 20 each time.

As to `O=C(Nc1ccc(Oc2ncnc3cc(Cl)ccc23)nc1)c1ccc(-c2ccccn2)s1`, the thermodynamic solubility at 48 h in data set [7] was 12.7 µg/mL (≈ 27.6 µM); in data set [8], 10.1 µg/mL (≈ 22 µM); in data set [9], 2.9 µg/mL (≈ 6.31 µM). In [10], this molecule had a Stability greater than 48 h. For the same molecule, the EC50 in data set [1] was 3.1 µM; in [2], greater than 50 µM. Moreover, the CC50 in data set [3] and in [4] was greater than 100 µM in each case. Further, the “Ratio CC50/EC50” value in [5] and in data set [6] was greater than 32 in each case.

As for `O=C1Nc2ccc(Cl)cc2[C@@](C#CC2CC2)(C(F)(F)F)O1` [EFAVIRENZ], the thermodynamic solubility at 48 h in data set [8] was 68.3 µg/mL (≈ 216 µM).

In [8], `CN1C(C(=O)Nc2ccccn2)=C(O)c2ccccc2S1(=O)=O` [PIROXICAM] displayed a thermodynamic solubility at 48 h of 7.3 µg/mL (≈ 22 µM).
